Where two headings read alike, the source gives them in different places.
Key:
[1] = test system: MDA-MB-231/ATCC; assay: NCI 60 growth inhibition; format: cell-based, human; details: Breast Cancer
[2] = test system: HOP-92; assay: NCI 60 growth inhibition; format: cell-based, human; details: HOP-92, Non-Small Cell Lung Cancer
[3] = test system: RXF 393; assay: NCI 60 growth inhibition; format: cell-based, human
[4] = test system: HCT-116; assay: NCI 60 growth inhibition; format: cell-based, human; details: HCT-116, Colon Cancer
[5] = test system: SK-MEL-28; assay: NCI 60 growth inhibition; format: cell-based, human; details: SK-MEL-28, Melanoma
[6] = test system: KM12; assay: NCI 60 growth inhibition; format: cell-based, human; details: KM12, Colon Cancer
[7] = test system: SR; assay: NCI 60 growth inhibition; format: cell-based, human; details: Leukemia
[8] = test system: K-562; assay: NCI 60 growth inhibition; format: cell-based, human; details: K-562, Leukemia
[9] = test system: T-47D; assay: NCI 60 growth inhibition; format: cell-based, human; details: Breast Cancer
[10] = test system: A498; assay: NCI 60 growth inhibition; format: cell-based, human; details: A498, Renal Cancer
[11] = test system: HT29; assay: NCI 60 growth inhibition; format: cell-based, human
[12] = test system: IGROV1; assay: NCI 60 growth inhibition; format: cell-based, human; details: IGROV1, Ovarian Cancer
[13] = test system: SN12C; assay: NCI 60 growth inhibition; format: cell-based, human; details: Renal Cancer
[14] = test system: BT-549; assay: NCI 60 growth inhibition; format: cell-based, human; details: BT-549, Breast Cancer
[15] = test system: CAKI-1; assay: NCI 60 growth inhibition; format: cell-based, human; details: CAKI-1, Renal Cancer
[16] = test system: SNB-75; assay: NCI 60 growth inhibition; format: cell-based, human; details: SNB-75, CNS Cancer
[17] = test system: HL-60(TB); assay: NCI 60 growth inhibition; format: cell-based, human; details: Leukemia
[18] = test system: SK-OV-3; assay: NCI 60 growth inhibition; format: cell-based, human; details: SK-OV-3, Ovarian Cancer
[19] = test system: SNB-19; assay: NCI 60 growth inhibition; format: cell-based, human; details: SNB-19, CNS Cancer
[20] = test system: OVCAR-3; assay: NCI 60 growth inhibition; format: cell-based, human; details: OVCAR-3, Ovarian Cancer
[21] = test system: M9 ENL1 cell line; assay: Anti-leukemic activity, Annexin V/7-AAD flow cytometry; format: cell-based; details: 24 h of drug exposure, read-out: M9ENL1 (EC50)
Procedure: The newly synthesized triazole derivatives of melampomagnolide B were screened for anti-leukemic activity against M9 ENL1 and primary AML cell lines; the latter were obtained with informed consent from human patients. Evaluations were performed after 24 h of drug exposure using flow cytometric analysis by labeling with Annexin V and 7-aminoactinomycin D (7-AAD) to delineate apoptotic cell populations. In all experiments PTL was included as a reference control.

[22] = test system: NCI panel of 60 human cancer cell lines; assay: NCI 60 growth inhibition, ranges over groups of cell lines; format: cell-based; details: read-out: GI50
Procedure: The above triazole derivatives of melampomagnolide B were evaluated for growth inhibitory properties against an NCI panel of 60 human cancer cell lines derived from nine human cancer cell types, grouped into disease sub-panels that represent leukemia, lung, colon, central nervous system (CNS), melanoma, renal, ovary, breast, and prostate cancer cells. Growth inhibitory (GI50) effects were measured as a function of the variation of optical density as a percentage of control.

[23] = Homo sapiens, RXF 393, RXF 393, Renal Cancer, Table 2
[24] = Homo sapiens, HT-29, Colon Cancer, Table 2
[25] = Homo sapiens, HL-60(TB), Table 2

C=C1C(=O)O[C@H]2[C@H]1CC/C(Cn1cc(-c3ccccc3)nn1)=C\CC[C@@]1(C)O[C@@H]21 [JVM 3-74, (1aR,7aS,10aS,10bS,E)-1a-Methyl-8-methylene-5-((4-phenyl-1H-1,2,3-triazol-1-yl)methyl)-2,3,6,7,7a,8,10a,10b-octahydrooxireno[2′,3′:9,10]cyclodeca[1,2-b]furan-9(1aH)-one]
GI50 ([1]; Homo sapiens, Table 2): 2000 nM | GI50 ([2]; Homo sapiens, Table 2): 1420 nM | GI50 [3, 23]: 1550 nM | GI50 ([4]; Homo sapiens, Table 2): 1170 nM | GI50 ([5]; Homo sapiens, Table 2): 1060 nM | GI50 ([6]; Homo sapiens, Table 2): 8480 nM | GI50 ([7]; Homo sapiens, Table 2): 1060 nM | GI50 ([8]; Homo sapiens, K562, Table 2): 1760 nM | GI50 ([9]; Homo sapiens, T47D, Table 2): 1300 nM | GI50 ([10]; Homo sapiens, Table 2): 7800 nM | GI50 [11, 24]: 1790 nM | GI50 ([12]; Homo sapiens, IGROV-1, Table 2): 6950 nM | GI50 ([13]; Homo sapiens, Table 2): 4500 nM | GI50 ([14]; Homo sapiens, Table 2): 2650 nM | GI50 ([15]; Homo sapiens, Table 2): 1280 nM | GI50 ([16]; Homo sapiens, Table 2): 6210 nM | GI50 [17, 25]: 1490 nM | GI50 ([18]; Homo sapiens, Table 2): 9950 nM | GI50 ([19]; Homo sapiens, Table 2): 7870 nM | GI50 ([20]; Homo sapiens, Table 2): 1400 nM | EC50 ([21]; M9-ENL1, 24 h): 1900 nM | GI50 ([22]; 60 cell, several cell lines in the NCI 60 cell panel): 200 to 990 nM

C=C1C(=O)O[C@H]2[C@H]1CC/C(Cn1cc(CCC)nn1)=C\CC[C@@]1(C)O[C@@H]21 [JVM 4-16, (1aR,7aS,10aS,10bS,E)-1a-Methyl-8-methylene-5((4-propyl-1H-1,2,3-triazol-1-yl)methyl)-2,3,6,7,7a,8,10a,10b-octahydrooxireno[2′,3′:9,10]cyclodeca[1,2-b]furan-9(1aH)-one]
GI50 ([1]; Homo sapiens, Table 2): 4220 nM | GI50 ([2]; Homo sapiens, Table 2): 2940 nM | GI50 [3, 23]: 4800 nM | GI50 ([4]; Homo sapiens, Table 2): 3980 nM | GI50 ([6]; Homo sapiens, Table 2): 17600 nM | GI50 ([7]; Homo sapiens, Table 2): 2880 nM | GI50 ([8]; Homo sapiens, K562, Table 2): 3960 nM | GI50 ([9]; Homo sapiens, T47D, Table 2): 4110 nM | GI50 ([10]; Homo sapiens, Table 2): 21500 nM | GI50 [11, 24]: 5500 nM | GI50 ([12]; Homo sapiens, IGROV-1, Table 2): 4630 nM | GI50 ([13]; Homo sapiens, Table 2): 12100 nM | GI50 ([14]; Homo sapiens, Table 2): 14200 nM | GI50 ([15]; Homo sapiens, Table 2): 3910 nM | GI50 ([16]; Homo sapiens, Table 2): 18500 nM | GI50 [17, 25]: 3530 nM | GI50 ([18]; Homo sapiens, Table 2): 26000 nM | GI50 ([19]; Homo sapiens, Table 2): 18800 nM | GI50 ([20]; Homo sapiens, Table 2): 3960 nM | EC50 ([21]; M9-ENL1, 24 h): 5500 nM | GI50 ([22]; several cell lines in the panel): < 5000 nM

C=C1C(=O)O[C@H]2[C@H]1CC/C(Cn1cc(-c3cc(C)c(C)cc3C)nn1)=C\CC[C@@]1(C)O[C@@H]21 [JVM 4-50]
GI50 ([1]; Table 2): 1110 nM | GI50 ([2]; Table 2): 430 nM | GI50 ([3]; RXF 393, Renal Cancer, Table 2): 960 nM | GI50 ([4]; Table 2): 330 nM | GI50 ([5]; Table 2): 1400 nM | GI50 ([6]; Table 2): 2310 nM | GI50 ([7]; Table 2): 1260 nM | GI50 ([8]; Table 2): 1390 nM | GI50 ([9]; Table 2): 530 nM | GI50 ([10]; Table 2): 1040 nM | GI50 ([11]; HT-29, Colon Cancer, Table 2): 500 nM | GI50 ([12]; Table 2): 1290 nM | GI50 ([13]; Table 2): 1490 nM | GI50 ([14]; Table 2): 750 nM | GI50 ([15]; Table 2): 1080 nM | GI50 ([16]; Table 2): 520 nM | GI50 ([17]; HL-60(TB), Table 2): 640 nM | GI50 ([18]; Table 2): 11700 nM | GI50 ([19]; Table 2): 3900 nM | GI50 ([20]; Table 2): 1030 nM | EC50 [21]: 9800 nM

C=C1C(=O)O[C@H]2[C@H]1CC/C(Cn1cc(-c3ccsc3)nn1)=C\CC[C@@]1(C)O[C@@H]21 [JVM 4-53]
GI50 ([1]; Table 3): 1750 nM | GI50 ([2]; Table 3): 1660 nM | GI50 ([3]; RXF 393, Renal Cancer, Table 3): 1070 nM | GI50 ([4]; Table 3): 1160 nM | GI50 ([5]; Table 3): 1810 nM | GI50 ([6]; Table 3): 6450 nM | GI50 ([7]; Table 3): 560 nM | GI50 ([8]; Table 3): 2510 nM | GI50 ([9]; Table 3): 2030 nM | GI50 ([10]; Table 3): 2650 nM | GI50 ([11]; HT29, Colon Cancer, Table 3): 1660 nM | GI50 ([12]; Table 3): 1920 nM | GI50 ([13]; Table 3): 2450 nM | GI50 ([14]; Table 3): 1800 nM | GI50 ([15]; Table 3): 1060 nM | GI50 ([16]; Table 3): 3230 nM | GI50 ([17]; HL-60 (TB), Table 3): 1910 nM | GI50 ([18]; Table 3): 17400 nM | GI50 ([19]; Table 3): 9490 nM | GI50 ([20]; Table 3): 1060 nM | EC50 [21]: 2700 nM

C=C1C(=O)O[C@H]2[C@H]1CC/C(Cn1cc(-c3ccc(N)cc3)nn1)=C\CC[C@@]1(C)O[C@@H]21 [JVM 4-58]
GI50 ([1]; Table 3): 3450 nM | GI50 ([2]; Table 3): 2130 nM | GI50 ([3]; RXF 393, Renal Cancer, Table 3): 1410 nM | GI50 ([4]; Table 3): 1550 nM | GI50 ([5]; Table 3): 2710 nM | GI50 ([6]; Table 3): 11400 nM | GI50 ([7]; Table 3): 700 nM | GI50 ([8]; Table 3): 2990 nM | GI50 ([9]; Table 3): 2230 nM | GI50 ([10]; Table 3): 10400 nM | GI50 ([11]; HT29, Colon Cancer, Table 3): 2140 nM | GI50 ([12]; Table 3): 2960 nM | GI50 ([13]; Table 3): 3480 nM | GI50 ([14]; Table 3): 3050 nM | GI50 ([15]; Table 3): 1770 nM | GI50 ([16]; Table 3): 4980 nM | GI50 ([17]; HL-60 (TB), Table 3): 2230 nM | GI50 ([18]; Table 3): 18300 nM | GI50 ([19]; Table 3): 12700 nM | GI50 ([20]; Table 3): 1620 nM | EC50 [21]: 2000 nM

C=C1C(=O)O[C@H]2[C@H]1CC/C(Cn1cc(-c3ccccc3C(F)(F)F)nn1)=C\CC[C@@]1(C)O[C@@H]21 [JVM 4-59]
GI50 ([1]; Table 3): 1640 nM | GI50 ([2]; Table 3): 1480 nM | GI50 ([3]; RXF 393, Renal Cancer, Table 3): 1070 nM | GI50 ([4]; Table 3): 1260 nM | GI50 ([5]; Table 3): 1750 nM | GI50 ([6]; Table 3): 5880 nM | GI50 ([8]; Table 3): 2400 nM | GI50 ([9]; Table 3): 1700 nM | GI50 ([10]; Table 3): 3860 nM | GI50 ([11]; HT29, Colon Cancer, Table 3): 1790 nM | GI50 ([12]; Table 3): 1810 nM | GI50 ([13]; Table 3): 2470 nM | GI50 ([14]; Table 3): 2400 nM | GI50 ([15]; Table 3): 1310 nM | GI50 ([16]; Table 3): 2970 nM | GI50 ([17]; HL-60 (TB), Table 3): 2580 nM | GI50 ([18]; Table 3): 17300 nM | GI50 ([19]; Table 3): 10800 nM | GI50 ([20]; Table 3): 1040 nM | EC50 [21]: 3900 nM
